In ChEMBL document CHEMBL5325410, “Ras superfamily GTPase activating proteins in cancer: Potential therapeutic targets?” (Eur J Med Chem, 2023):

Assays:
[1] = test system: MDA-MB-231; assay: Inhibition of cell migration in human MDA-MB-231 cells at 2.5 uM measured after 12 hrs by transwell migration assay; format: functional
[2] = biological target: T1, ADP-ribosylation factor GTPase-activating protein 1 (Homo sapiens, UniProt Q8N6T3); assay: Inhibition of ARFGAP1 (unknown origin)
[3] = biological target: T1, ADP-ribosylation factor GTPase-activating protein 1; assay: Inhibition of ARFGAP1 (unknown origin) at 10 uM relative to control

T1 sequence (Q8N6T3 whole entry): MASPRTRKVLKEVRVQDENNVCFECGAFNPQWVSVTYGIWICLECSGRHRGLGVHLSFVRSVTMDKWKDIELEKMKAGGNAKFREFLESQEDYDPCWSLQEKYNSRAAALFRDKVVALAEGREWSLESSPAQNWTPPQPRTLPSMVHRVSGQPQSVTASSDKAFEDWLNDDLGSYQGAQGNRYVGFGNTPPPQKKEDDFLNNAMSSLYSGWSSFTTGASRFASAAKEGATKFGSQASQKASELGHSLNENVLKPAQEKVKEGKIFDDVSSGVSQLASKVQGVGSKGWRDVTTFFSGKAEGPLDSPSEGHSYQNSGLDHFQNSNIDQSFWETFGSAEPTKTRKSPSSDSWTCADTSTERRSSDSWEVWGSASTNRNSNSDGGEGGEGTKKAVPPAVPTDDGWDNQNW

SMILES	inhibition at 2.5 µM [1] [%]	EC50 [2] [nM]	inhibition [3] [%]
OC[C@H](Cc1ccccc1)Nc1nc(Oc2ccc3c(c2)CCC3)nc2c1ncn2Cc1ccc(-c2ccccc2)cc1	80	500	84
FC(F)(F)c1cccc(Oc2nc(NCCc3cccc4ccccc34)c3ncn(Cc4ccc(-c5ccccc5)cc4)c3n2)c1	–	–	67
